These results are taken from ChEMBL document CHEMBL3632500, “Developing structure-activity relationships from an HTS hit for inhibition of the Cks1-Skp2 protein-protein interaction” (Bioorg Med Chem Lett, 2015).

The target in test [1] is T1, Cyclin-dependent kinases regulatory subunit 1/S-phase kinase-associated protein 2 (Homo sapiens, UniProt P61024+Q13309). The test is described as follows: Inhibition of Cks1-Skp2 (unknown origin) interaction after 30 mins by ELISA. In kind it is protein assay.
Test [2] can be described thus: Antiproliferative activity against human HT1080 cells after 6 days. It is filed as functional. The note with it: HT-1080, 144 h.
Test [3] relates to A549. The test is described as follows: Antiproliferative activity against human A549 cells after 6 days. In kind it is functional. The note with it: A549, 144 h.
The subject of test [4] is A549. The test is described as follows: Antiproliferative activity against human A549 cells after 2 days. It is filed as functional, cell-based.
The next test has as its system NCI-H1299. In words: Antiproliferative activity against human H1299 cells after 2 days. In kind it is functional, cell-based.
Test [5] deals with T1, Cyclin-dependent kinases regulatory subunit 1/S-phase kinase-associated protein 2. In words: Inhibition of Cks1-Skp2 (unknown origin) interaction assessed as increase in p27-GFP level by western blot analysis. In kind it is protein assay.
Target sequence in this assay (P61024 2-79 limits assumed): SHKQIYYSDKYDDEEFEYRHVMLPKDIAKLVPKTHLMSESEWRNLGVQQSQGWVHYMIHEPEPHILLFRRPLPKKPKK
Target sequence in this assay (Q13309 whole entry partner): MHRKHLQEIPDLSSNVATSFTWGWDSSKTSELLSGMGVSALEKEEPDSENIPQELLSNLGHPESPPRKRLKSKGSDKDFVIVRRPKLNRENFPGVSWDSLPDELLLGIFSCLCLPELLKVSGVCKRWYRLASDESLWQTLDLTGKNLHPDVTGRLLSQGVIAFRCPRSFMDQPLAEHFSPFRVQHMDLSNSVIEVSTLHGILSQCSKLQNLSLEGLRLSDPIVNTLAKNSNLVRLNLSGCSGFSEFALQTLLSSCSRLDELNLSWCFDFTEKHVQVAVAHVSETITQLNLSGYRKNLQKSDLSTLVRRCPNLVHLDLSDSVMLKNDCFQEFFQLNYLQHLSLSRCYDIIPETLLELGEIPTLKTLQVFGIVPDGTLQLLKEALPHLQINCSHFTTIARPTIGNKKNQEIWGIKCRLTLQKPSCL
Test [6] has the same target. In words: Inhibition of Cks1-Skp2 (unknown origin) interaction assessed as increase in p27-GFP level by ELISA. It is filed as protein assay.
Target sequence in this assay (P61024 2-79 limits assumed): as the sequence (P61024 2-79 limits assumed) above
Target sequence in this assay (Q13309 whole entry partner): as the sequence (Q13309 whole entry partner) above
Where [7] appears, read: Homo sapiens, A549, 48 h, read-out: IC50.
Where [8] appears, read: Homo sapiens, NCI-H1299, 48 h, read-out: IC50.

SMILES strings stand for the structures. The source made the active and inactive calls. The calls are words filed in the database; no cut-off is given here.

In the case of `Cc1ccc(S(=O)(=O)Nc2ccc(Br)c3ccccc23)cc1`, in test [1], the inhibition entry was “inactive”. Besides, the GI50 in test [2] stood at 27.4 µM; in the test on A549 [3], 48.5 µM. Further, the 50% inhibitory concentration (IC50) result with A549 [4] (a549) and in the test with NCI-H1299 (nci-h1299) was “Not Active” in each case.

Consider `Cc1ccc(S(=O)(=O)Nc2ccc(N3CCOCC3)c3cccnc23)cc1`, for which, in test [1], the IC50 entry is reported as “Not Active”. Further, the outcome in test [5] and in test [6] was inactive.

Consider `Cc1ccc(S(=O)(=O)Nc2cc(Oc3cccc(C#N)c3)cc3cccnc23)cc1`, for which the 50% growth inhibitory concentration (GI50) in test [2] was determined as 6.83 µM; in the test with A549 [3] it was 6.48 µM. The IC50 result in the test with A549 [4] (a549) and in the test on NCI-H1299 (nci-h1299) was “Not Active” each time.

In the case of `Cc1ccc(S(=O)(=O)Nc2ccc(-c3cc4ccccc4s3)c3cccnc23)cc1`, the result in test [5] and in test [6] was Active. Also, the values for the GI50 (in test [2]; in the test with A549 [3]) were 0.15 µM and 0.39 µM, respectively. The half-maximal inhibitory concentration (IC50) entry in the test on A549 [4] (a549) and with NCI-H1299 (nci-h1299) was “Not Active” in each case.

As to `CS(=O)(=O)Nc1ccc(-c2ccncc2)c2cccnc12`, the 50% inhibitory concentration (IC50) result in test [1] is “Not Active”. The outcome in test [5] and in test [6] was inactive.

With `COc1ccc(S(=O)(=O)Nc2ccc(-c3ccncc3)c3cccnc23)cc1`, the IC50 is 2.45 µM in test [1] (read-out: IC50), “Not Active” in the test with A549 [4] (a549) and “Not Active” with NCI-H1299 (nci-h1299). The outcome in test [5] and in test [6] was Active. Also, the GI50 was found to be 1.07 µM in test [2] and 5.24 µM in the test on A549 [3].

For `O=S(=O)(Nc1ccc(-c2cccnc2)c2cccnc12)c1cccc(C(F)(F)F)c1`, the result in test [5] and in test [6] was Active. Also, the IC50 is 5.91 µM in the test with A549 [4] (setting [7]) and 3.9 µM in the test on NCI-H1299 (setting [8]).

Regarding `Cc1ccc(S(=O)(=O)Nc2ccc(N3CCC(Cc4ccccc4)CC3)c3cccnc23)cc1`, in test [1], the IC50 result is “Not Active”. The result in test [5] and in test [6] was inactive.

With `Cc1ccc(S(=O)(=O)Nc2ccc(-c3ccsc3)c3cccnc23)cc1`, the outcome in test [5] and in test [6] was Active. The 50% growth inhibitory concentration (GI50) is 0.64 µM in test [2] and 2.36 µM with A549 [3]. For the same molecule, the figures for the IC50 with A549 [4] (setting [7]) and with NCI-H1299 (setting [8]) were 4.63 µM and 4.09 µM, respectively.

As for `O=S(=O)(Nc1ccc(-c2ccncc2)c2cccnc12)C1CC1`, the result in test [5] and in test [6] was inactive.

As for `Cc1ccc(S(=O)(=O)Nc2ccc(N3CCN(C)CC3)c3cccnc23)cc1`, the concentration for half-maximal inhibition (IC50) result in test [1] is “Not Active”. The outcome in test [5] and in test [6] was inactive.

Regarding `Cc1ccc(S(=O)(=O)N(C)c2cccc3cccnc23)cc1`, the inhibition entry in test [1] is “inactive”.

Consider `Cc1ccc(NS(=O)(=O)c2ccc(-c3ccccc3)c3cccnc23)cc1`, for which, in test [1], the inhibition result is “inactive”.

Take `Cc1ccc(S(=O)(=O)Nc2ccc(-c3ccccc3)c3cccnc23)cc1`: the result in test [5] and in test [6] was Active. The figures for the GI50 (in test [2]; in the test with A549 [3]) were 1.64 µM and 2.36 µM, respectively. Besides, the IC50 came out at 7.22 µM in the test on A549 [4] (setting [7]) and 8.56 µM with NCI-H1299 (setting [8]).

On to `O=S(=O)(Nc1ccc(-c2ccccc2)c2cccnc12)c1cccc(C(F)(F)F)c1`, for which the result in test [5] and in test [6] was Active.

Turning to `O=S(=O)(Nc1ccc(-c2ccncc2)c2cccnc12)c1cccnc1`, the outcome in test [5] and in test [6] was inactive. Besides, the concentration for 50% growth inhibition (GI50) came to 1.07 µM in test [2] and 5.88 µM with A549 [3]. The IC50 came to 11.8 µM in the test with A549 [4] (setting [7]) and 9.48 µM in the test with NCI-H1299 (setting [8]).

Turning to `Cc1ccc(S(=O)(=O)Nc2cccc3cccnc23)cc1`, the IC50 came to 2.18 µM in test [1] (read-out: IC50), 7.54 µM with A549 [4] (setting [7]) and 5.35 µM with NCI-H1299 (setting [8]). The outcome in test [5] and in test [6] was Active. Further, the GI50 in test [2] was 2.46 µM; in the test with A549 [3] it was 2.48 µM.

Turning to `Cc1ccc(S(=O)(=O)Nc2ccc(Br)c3cccnc23)cc1`, the outcome in test [5] and in test [6] was Active.

For `COc1ccc(Oc2cc(NS(=O)(=O)c3ccc(C)cc3)c3ncccc3c2)cc1`, the outcome in test [5] and in test [6] was inactive. Further, the GI50 in test [2] was 0.74 µM; in the test on A549 [3], 4.09 µM. The IC50 with A549 [4] (setting [7]) was 16.9 µM; in the test with NCI-H1299 (setting [8]) it was 11.3 µM.

For the molecule `COc1ccc(S(=O)(=O)Nc2ccc(-c3cccnc3)c3cccnc23)cc1`, the figures for the IC50 (in test [1] (read-out: IC50); in the test on A549 [4] (setting [7]); in the test on NCI-H1299 (setting [8])) were 0.58 µM, 7.94 µM and 5.31 µM, respectively. For the same molecule, the outcome in test [5] and in test [6] was Active. The results for the concentration for 50% growth inhibition (GI50) (in test [2]; with A549 [3]) were 0.44 µM and 1.24 µM, respectively.

Turning to `O=S(=O)(Nc1ccc(-c2cccnc2)c2cccnc12)c1cccnc1`, the result in test [5] and in test [6] was Active. Besides, the 50% growth inhibitory concentration (GI50) in test [2] was 0.4 µM; in the test with A549 [3] it was 0.91 µM. Further, the IC50 in the test on A549 [4] (setting [7]) is 1.49 µM; with NCI-H1299 (setting [8]), 1.05 µM.

As to `Cc1ccc(S(=O)(=O)Nc2ccc(-c3ccco3)c3cccnc23)cc1`, the outcome in test [5] and in test [6] was Active. Also, the concentration for 50% growth inhibition (GI50) in test [2] was 9.78 µM; with A549 [3] it was 26 µM. The IC50 result with A549 [4] (a549) and in the test on NCI-H1299 (nci-h1299) was “Not Active” in each case.

Regarding `Cc1ccc(S(=O)(=O)Nc2ccc(-c3cccnc3)c3cccnc23)cc1`, the outcome in test [5] and in test [6] was Active. The GI50 is 4.22 µM in test [2] and 6.02 µM with A549 [3]. For the same molecule, the IC50 was determined as 7.13 µM in the test on A549 [4] (setting [7]) and 6.95 µM in the test on NCI-H1299 (setting [8]).

Consider `CS(=O)(=O)Nc1ccc(-c2ccccc2)c2cccnc12`, for which the result in test [5] and in test [6] was Active.

For the molecule `O=S(=O)(Nc1ccc(-c2cccnc2)c2cccnc12)C1CC1`, the outcome in test [5] and in test [6] was inactive.

Turning to `Cc1ccc(S(=O)(=O)Nc2ccc(-c3ccccc3)c3ccncc23)cc1`, the inhibition entry in test [1] was “inactive”.

For the molecule `CS(=O)(=O)Nc1ccc(-c2cccnc2)c2cccnc12`, the result in test [5] and in test [6] was inactive.

For the molecule `O=S(=O)(Nc1ccc(-c2ccccc2)c2cccnc12)C1CC1`, the result in test [5] and in test [6] was inactive.

Take `Cc1ccc(C(=O)Nc2ccc(Br)c3cccnc23)cc1`: in test [1], the inhibition result was “inactive”.

With `O=S(=O)(Nc1ccc(-c2ccccc2)c2cccnc12)c1cccnc1`, the result in test [5] and in test [6] was Active.

As for `Cc1ccc(S(=O)(=O)Nc2cc(Oc3cc(F)cc(F)c3)cc3cccnc23)cc1`, the outcome in test [5] and in test [6] was Active. Also, the values for the 50% growth inhibitory concentration (GI50) (in test [2]; with A549 [3]) were 0.08 µM and 4.11 µM, respectively. Also, the concentration for half-maximal inhibition (IC50) in the test on A549 [4] (setting [7]) was 2.94 µM; in the test on NCI-H1299 (setting [8]) it was 2.46 µM.

For the molecule `COc1ccc(S(=O)(=O)Nc2ccc(-c3ccccc3)c3cccnc23)cc1`, the outcome in test [5] and in test [6] was Active.
